Test results: ChEMBL document CHEMBL3885881, “DrugMatrix”

Species: Rattus norvegicus
Assay: DrugMatrix - Regimen: Daily Repeat
Type: toxicity, organism-based, Sprague-Dawley
Set-up: regimen Daily Repeat, gender Male, age 6-8 weeks
Conditions: in vivo, po, route oral GAVAGE, […]; for ABSOLUTE BASOPHIL / ABSOLUTE EOSINOPHIL / ABSOLUTE LYMPHOCYTE / ABSOLUTE MONOCYTE / ABSOLUTE SEGMENTED NEUTROPHIL / BASOPHIL / EOSINOPHIL / ERYTHROCYTE COUNT / HEMATOCRIT / HEMOGLOBIN / LEUKOCYTE COUNT / LYMPHOCYTE / MEAN CORPUSCULAR HEMOGLOBIN / MEAN CORPUSCULAR HEMOGLOBIN CONCENTRATION / MEAN CORPUSCULAR VOLUME / MONOCYTE / NEUTROPHIL / NUCLEATED RED BLOOD CELLS / PLATELET COUNT: tissue Blood; for ALANINE AMINOTRANSFERASE / ALBUMIN / ALKALINE PHOSPHATASE / ASPARTATE AMINOTRANSFERASE / BLOOD UREA NITROGEN / CARBON DIOXIDE / CHLORIDE / CHOLESTEROL / CREATINE PHOSPHOKINASE / CREATININE / GLUCOSE / LACTATE DEHYDROGENASE / LIPASE / PHOSPHORUS / POTASSIUM / SODIUM / TOTAL BILIRUBIN / TOTAL PROTEIN / URIC ACID: tissue Plasma
[1] = 10 mg/kg, 72 h, dose level Low, time 3 day
[2] = 10 mg/kg, 120 h, dose level Low, time 5 day
[3] = 25 mg/kg, 72 h, dose level High, time 3 day
[4] = 25 mg/kg, 120 h, dose level High, time 5 day

In the case of Sc1ncnc2nc[nH]c12 [MERCAPTOPURINE ANHYDROUS], the “ABSOLUTE BASOPHIL” value [1] is reported as 0 CELLS/uL, the “ABSOLUTE EOSINOPHIL” value [1] is reported as 96.67 CELLS/uL and the “ABSOLUTE LYMPHOCYTE” value [1] is reported as 10655 CELLS/uL. For the same molecule, the “ABSOLUTE MONOCYTE” value [1] was 48.33 CELLS/uL, the “ABSOLUTE SEGMENTED NEUTROPHIL” value [1] was 1066.67 CELLS/uL and the BASOPHIL [1] was 0%. For the same molecule, the EOSINOPHIL [1] was 0.67%, the “ERYTHROCYTE COUNT” value [1] was 5.09 x10E6/uL and the HEMATOCRIT [1] was 31.73%. The HEMOGLOBIN [1] was 12.87 G/DL, the “LEUKOCYTE COUNT” value [1] was 11.87 x10E3/uL and the LYMPHOCYTE [1] was 90.33%. The “MEAN CORPUSCULAR HEMOGLOBIN” value [1] was 25.3 pg, the “MEAN CORPUSCULAR HEMOGLOBIN CONCENTRATION” value [1] was 40.6 G/DL and the “MEAN CORPUSCULAR VOLUME” value [1] was 62.4 fL. The MONOCYTE [1] was 0.33%, the NEUTROPHIL [1] was 8.67% and the “NUCLEATED RED BLOOD CELLS” value [1] was 0 /100WBC. For the same molecule, the “PLATELET COUNT” value [1] was 1148.67 x10E3/uL, the “ALANINE AMINOTRANSFERASE” value [1] was 66.33 u/L and the ALBUMIN [1] was 3.9 G/DL. For the same molecule, the “ALKALINE PHOSPHATASE” value [1] was 364.67 u/L, the “ASPARTATE AMINOTRANSFERASE” value [1] was 83 u/L and the “BLOOD UREA NITROGEN” value [1] was 13 mg/dL. The “CARBON DIOXIDE” value [1] was 30.33 mmol/L, the CHLORIDE [1] was 99 MEQ/L and the CHOLESTEROL [1] was 73.67 mg/dL. For the same molecule, the “CREATINE PHOSPHOKINASE” value [1] was 175.33 u/L, the CREATININE [1] was 0.15 mg/dL and the GLUCOSE [1] was 164.33 mg/dL. For the same molecule, the “LACTATE DEHYDROGENASE” value [1] was 112.33 u/L, the LIPASE [1] was 11.33 u/L and the PHOSPHORUS [1] was 11.03 mg/dL. For the same molecule, the POTASSIUM [1] was 6.32 MEQ/L, the SODIUM [1] was 142.6 MEQ/L and the “TOTAL BILIRUBIN” value [1] was 0.2 mg/dL. The “TOTAL PROTEIN” value [1] was 5.6 G/DL, the “URIC ACID” value [1] was 1.4 mg/dL and the “ABSOLUTE BASOPHIL” value [2] was 0 CELLS/uL. The “ABSOLUTE EOSINOPHIL” value [2] was 128 CELLS/uL, the “ABSOLUTE LYMPHOCYTE” value [2] was 12203 CELLS/uL and the “ABSOLUTE MONOCYTE” value [2] was 203 CELLS/uL. For the same molecule, the “ABSOLUTE SEGMENTED NEUTROPHIL” value [2] was 1366 CELLS/uL, the BASOPHIL [2] was 0% and the EOSINOPHIL [2] was 0.67%. For the same molecule, the “ERYTHROCYTE COUNT” value [2] was 5.76 x10E6/uL, the HEMATOCRIT [2] was 36.7% and the HEMOGLOBIN [2] was 14.3 G/DL. The “LEUKOCYTE COUNT” value [2] was 13.9 x10E3/uL, the LYMPHOCYTE [2] was 88.67% and the “MEAN CORPUSCULAR HEMOGLOBIN” value [2] was 24.83 pg. The “MEAN CORPUSCULAR HEMOGLOBIN CONCENTRATION” value [2] was 38.97 G/DL, the “MEAN CORPUSCULAR VOLUME” value [2] was 63.73 fL and the MONOCYTE [2] was 1.33%. The NEUTROPHIL [2] was 9.33%, the “NUCLEATED RED BLOOD CELLS” value [2] was 0 /100WBC and the “PLATELET COUNT” value [2] was 1127 x10E3/uL. For the same molecule, the “ALANINE AMINOTRANSFERASE” value [2] was 61 u/L, the ALBUMIN [2] was 4.33 G/DL and the “ALKALINE PHOSPHATASE” value [2] was 384.33 u/L. For the same molecule, the “ASPARTATE AMINOTRANSFERASE” value [2] was 75 u/L, the “BLOOD UREA NITROGEN” value [2] was 15 mg/dL and the “CARBON DIOXIDE” value [2] was 29.33 mmol/L. For the same molecule, the CHLORIDE [2] was 100.33 MEQ/L, the CHOLESTEROL [2] was 73.67 mg/dL and the “CREATINE PHOSPHOKINASE” value [2] was 274.33 u/L. The CREATININE [2] was 0.22 mg/dL, the GLUCOSE [2] was 153.67 mg/dL and the “LACTATE DEHYDROGENASE” value [2] was 111 u/L. For the same molecule, the LIPASE [2] was 12.67 u/L, the PHOSPHORUS [2] was 10.1 mg/dL and the POTASSIUM [2] was 6.41 MEQ/L. For the same molecule, the SODIUM [2] was 142.27 MEQ/L, the “TOTAL BILIRUBIN” value [2] was 0.17 mg/dL and the “TOTAL PROTEIN” value [2] was 5.97 G/DL. The “URIC ACID” value [2] was 1.13 mg/dL, the “ABSOLUTE BASOPHIL” value [3] was 0 CELLS/uL and the “ABSOLUTE EOSINOPHIL” value [3] was 0 CELLS/uL. The “ABSOLUTE LYMPHOCYTE” value [3] was 6679.67 CELLS/uL, the “ABSOLUTE MONOCYTE” value [3] was 205.33 CELLS/uL and the “ABSOLUTE SEGMENTED NEUTROPHIL” value [3] was 481.67 CELLS/uL. The BASOPHIL [3] was 0%, the EOSINOPHIL [3] was 0% and the “ERYTHROCYTE COUNT” value [3] was 6.41 x10E6/uL. For the same molecule, the HEMATOCRIT [3] was 40.73%, the HEMOGLOBIN [3] was 15.47 G/DL and the “LEUKOCYTE COUNT” value [3] was 7.37 x10E3/uL. For the same molecule, the LYMPHOCYTE [3] was 91%, the “MEAN CORPUSCULAR HEMOGLOBIN” value [3] was 24.1 pg and the “MEAN CORPUSCULAR HEMOGLOBIN CONCENTRATION” value [3] was 38 G/DL. For the same molecule, the “MEAN CORPUSCULAR VOLUME” value [3] was 63.4 fL, the MONOCYTE [3] was 2.67% and the NEUTROPHIL [3] was 6.33%. For the same molecule, the “NUCLEATED RED BLOOD CELLS” value [3] was 0.33 /100WBC, the “PLATELET COUNT” value [3] was 972 x10E3/uL and the “ALANINE AMINOTRANSFERASE” value [3] was 61.67 u/L. The ALBUMIN [3] was 4.17 G/DL, the “ALKALINE PHOSPHATASE” value [3] was 420.33 u/L and the “ASPARTATE AMINOTRANSFERASE” value [3] was 105.67 u/L. For the same molecule, the “BLOOD UREA NITROGEN” value [3] was 12 mg/dL, the “CARBON DIOXIDE” value [3] was 28 mmol/L and the CHLORIDE [3] was 99.33 MEQ/L. The CHOLESTEROL [3] was 77.33 mg/dL, the “CREATINE PHOSPHOKINASE” value [3] was 602.33 u/L and the CREATININE [3] was 0.16 mg/dL. For the same molecule, the GLUCOSE [3] was 163 mg/dL, the “LACTATE DEHYDROGENASE” value [3] was 320 u/L and the LIPASE [3] was 13 u/L. The PHOSPHORUS [3] was 11.97 mg/dL, the POTASSIUM [3] was 6.85 MEQ/L and the SODIUM [3] was 141.03 MEQ/L. The “TOTAL BILIRUBIN” value [3] was 0.2 mg/dL, the “TOTAL PROTEIN” value [3] was 5.8 G/DL and the “URIC ACID” value [3] was 1.57 mg/dL. For the same molecule, the “ABSOLUTE BASOPHIL” value [4] was 0 CELLS/uL, the “ABSOLUTE EOSINOPHIL” value [4] was 80.67 CELLS/uL and the “ABSOLUTE LYMPHOCYTE” value [4] was 12020.67 CELLS/uL. For the same molecule, the “ABSOLUTE MONOCYTE” value [4] was 204.67 CELLS/uL, the “ABSOLUTE SEGMENTED NEUTROPHIL” value [4] was 927.33 CELLS/uL and the BASOPHIL [4] was 0%. For the same molecule, the EOSINOPHIL [4] was 0.67%, the “ERYTHROCYTE COUNT” value [4] was 5.62 x10E6/uL and the HEMATOCRIT [4] was 34.93%. For the same molecule, the HEMOGLOBIN [4] was 13.6 G/DL, the “LEUKOCYTE COUNT” value [4] was 13.23 x10E3/uL and the LYMPHOCYTE [4] was 91%. For the same molecule, the “MEAN CORPUSCULAR HEMOGLOBIN” value [4] was 24.33 pg, the “MEAN CORPUSCULAR HEMOGLOBIN CONCENTRATION” value [4] was 39 G/DL and the “MEAN CORPUSCULAR VOLUME” value [4] was 62.3 fL. The MONOCYTE [4] was 1.33%, the NEUTROPHIL [4] was 7% and the “NUCLEATED RED BLOOD CELLS” value [4] was 0 /100WBC. The “PLATELET COUNT” value [4] was 1431.67 x10E3/uL, the “ALANINE AMINOTRANSFERASE” value [4] was 58 u/L and the ALBUMIN [4] was 4.4 G/DL. The “ALKALINE PHOSPHATASE” value [4] was 341 u/L, the “ASPARTATE AMINOTRANSFERASE” value [4] was 91.33 u/L and the “BLOOD UREA NITROGEN” value [4] was 10.67 mg/dL. The “CARBON DIOXIDE” value [4] was 25 mmol/L, the CHLORIDE [4] was 100.33 MEQ/L and the CHOLESTEROL [4] was 73 mg/dL. For the same molecule, the “CREATINE PHOSPHOKINASE” value [4] was 601.67 u/L, the CREATININE [4] was 0.13 mg/dL and the GLUCOSE [4] was 164 mg/dL. For the same molecule, the “LACTATE DEHYDROGENASE” value [4] was 169.67 u/L, the LIPASE [4] was 12.33 u/L and the PHOSPHORUS [4] was 11.07 mg/dL. The POTASSIUM [4] was 7.18 MEQ/L, the SODIUM [4] was 142.8 MEQ/L and the “TOTAL BILIRUBIN” value [4] was 0.17 mg/dL. The “TOTAL PROTEIN” value [4] was 6.07 G/DL and the “URIC ACID” value [4] was 1.5 mg/dL.
